In test [1] the target is T1, ER-α in MCF-7 cells (Homo sapiens, UniProt P03372).
T1 construct: endogenous in cells; host or cells: MCF-7
T1 sequence (P03372 1-595): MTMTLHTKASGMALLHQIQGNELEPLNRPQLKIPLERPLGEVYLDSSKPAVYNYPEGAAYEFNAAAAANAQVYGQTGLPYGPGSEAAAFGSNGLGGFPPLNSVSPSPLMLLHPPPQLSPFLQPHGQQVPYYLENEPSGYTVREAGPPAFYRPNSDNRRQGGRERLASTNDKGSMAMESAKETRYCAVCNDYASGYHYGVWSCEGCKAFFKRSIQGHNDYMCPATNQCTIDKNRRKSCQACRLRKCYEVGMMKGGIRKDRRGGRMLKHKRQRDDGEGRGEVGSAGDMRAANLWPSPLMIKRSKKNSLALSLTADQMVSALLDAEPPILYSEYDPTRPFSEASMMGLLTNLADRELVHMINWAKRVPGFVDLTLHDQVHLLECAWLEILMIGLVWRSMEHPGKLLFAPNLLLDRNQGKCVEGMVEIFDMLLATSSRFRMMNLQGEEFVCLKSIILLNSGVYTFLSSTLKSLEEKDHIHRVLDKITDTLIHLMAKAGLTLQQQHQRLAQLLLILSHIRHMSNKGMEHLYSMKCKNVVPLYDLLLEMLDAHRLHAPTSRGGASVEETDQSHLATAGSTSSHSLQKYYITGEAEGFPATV
In words: Breast Cancer Cell ER-α In Cell Western Assay (SP1). The test is classed as cell-based. As to conditions: 4 or 24 hr post compound addition; for Emax: MCF7, SP1 antibody, read-out: ER-α In Cell Western Assay (SP1) Max Response; for DC50: SP1 antibody, read-out: ER-α In Cell Western Assay (SP1) IC50. In a few lines:
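MCF-7 cells in charcoal-stripped FBS medium, treated with 11-point semilog dilutions (0.3–0.000003 μM final) for 4 or 24 h. Fixed cells immunostained with SP1 antibody (800 nm) and DRAQ5 DNA (700 nm); ER/DNA ratio expressed as % of untreated cells.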

For test [2], the system named is MCF-7 cells. In words: Breast Cancer Cell Viability Assays (MCF-7, CellTiter-Glo). The test is classed as cell-based. As to conditions: 5 days' compound exposure; for IC50: Homo sapiens, MCF7, 120 h. The procedure, abridged: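 MCF-7 cells (320/well, RPMI with 10% FBS) exposed for 5 days to an eleven-point semilog series, 0.3–0.000003 μM final. Viability read by CellTiter-Glo luminescence, expressed as background-corrected percent of untreated cells.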
For orientation: Cellular ATP, detected with luciferase, serves as a proxy for viable cell number.

In the case of `CC/C(=C(/c1ccc(/C=C/C(=O)O)cc1)c1ccc2[nH]nc(F)c2c1)c1ccc(F)cc1C#N` [Example 102, (E)-3-(4-((E)-2-(2-Cyano-4-fluorophenyl)-1-(3-fluoro-1H-indazol-5-yl)but-1-en-1-yl)phenyl)acrylic acid], in test [1], the Emax is at least 40% and the DC50 was at most 100 nM. Besides, in test [2], the “MCF7 Viability Assay Max Response” value was “++ (++ = a single % value ≧ 40%)” and the IC50 (as a rule, the concentration at which inhibition is half-maximal) is at most 100 nM.
Turning to `CC/C(=C(/c1ccc(/C=C/C(=O)O)cc1)c1ccc2[nH]nc(F)c2c1)c1ccc(C(F)(F)F)cc1C#N` [Example 103], in test [1], the Emax was at least 40% and the DC50 is at most 100 nM. In addition, in test [2], the “MCF7 Viability Assay Max Response” value is “++ (++ = a single % value ≧ 40%)” and the IC50 was at most 100 nM.
With `CC/C(=C(/c1ccc(/C=C/C(=O)O)cc1)c1ccc2[nH]nc(F)c2c1)c1ccc(C#N)cc1F` [Example 104, (E)-3-(4-((E)-2-(4-Cyano-2-fluorophenyl)-1-(3-fluoro-1H-indazol-5-yl)but-1-en-1-yl)phenyl)acrylic acid], in test [1], the Emax was at least 40% and the DC50 is at most 100 nM. Besides, in test [2], the “MCF7 Viability Assay Max Response” value was “++ (++ = a single % value ≧ 40%)” and the IC50 was at most 100 nM.
As for `CC/C(=C(/c1ccc(/C=C/C(=O)O)cc1)c1ccc2[nH]nc(F)c2c1)c1ccc(C#N)cc1C` [Example 105], in test [1], the Emax is at least 40% and the DC50 was at most 100 nM. Further, in test [2], the “MCF7 Viability Assay Max Response” value is listed as “++ (++ = a single % value ≧ 40%)” and the IC50 was at most 100 nM.
Regarding `CC/C(=C(/c1ccc(/C=C/C(=O)O)cc1)c1ccc2[nH]nc(F)c2c1)c1ccc(C#N)cc1Cl` [Example 106, (E)-3-(4-((E)-2-(2-Chloro-4-cyanophenyl)-1-(3-fluoro-1H-indazol-5-yl)but-1-en-1-yl)phenyl)acrylic acid], in test [1], the Emax is at least 40% and the DC50 is at most 100 nM. Also, in test [2], the “MCF7 Viability Assay Max Response” value was “++ (++ = a single % value ≧ 40%)” and the half-maximal inhibitory concentration (IC50) was at most 100 nM.
Regarding `CC/C(=C(/c1ccc(/C=C/C(=O)O)cc1)c1ccc2[nH]nc(F)c2c1)c1ccc(OC)cc1C#N` [Example 107], in test [1], the Emax was at least 40% and the DC50 was at most 100 nM. In test [2], the “MCF7 Viability Assay Max Response” value is “++ (++ = a single % value ≧ 40%)” and the IC50 was at most 100 nM.
As to `N#Cc1cc(Cl)ccc1/C(=C(\c1ccc(/C=C/C(=O)O)cc1)c1ccc2[nH]nc(F)c2c1)C1CCC1` [Example 108, (E)-3-(4-((E)-2-(4-Chloro-2-cyanophenyl)-2-cyclobutyl-1-(3-fluoro-1H-indazol-5-yl)vinyl)phenyl)acrylic acid], in test [1], the Emax was at least 40% and the DC50 was at most 100 nM. Besides, in test [2], the “MCF7 Viability Assay Max Response” value is on record as “++ (++ = a single % value ≧ 40%)” and the 50% inhibitory concentration (IC50) is at most 100 nM.
Turning to `N#Cc1cc(Cl)ccc1/C(=C(\c1ccc(/C=C/C(=O)O)cc1)c1ccc2[nH]ncc2c1)C1CCC1` [Example 109, (E)-3-(4-((E)-2-(4-Chloro-2-cyanophenyl)-2-cyclobutyl-1-(1H-indazol-5-yl)vinyl)phenyl)acrylic acid], in test [1], the Emax was at least 40% and the DC50 is at most 100 nM. In test [2], the “MCF7 Viability Assay Max Response” value was “++ (++ = a single % value ≧ 40%)” and the half-maximal inhibitory concentration (IC50) was at most 100 nM.
`CCOc1cc(C)c(/C(=C(\c2ccc(/C=C/C(=O)O)cc2)c2ccc3[nH]nc(F)c3c2)C2CCC2)cn1` [Example 110, (E)-3-(4-((E)-2-Cyclobutyl-2-(6-ethoxy-4-methylpyridin-3-yl)-1-(3-fluoro-1H-indazol-5-yl)vinyl)phenyl)acrylic acid]: in test [1], the Emax was at least 40% and the DC50 is at most 100 nM. Further, in test [2], the “MCF7 Viability Assay Max Response” value is recorded as “++ (++ = a single % value ≧ 40%)” and the 50% inhibitory concentration (IC50) was at most 100 nM.
Turning to `COc1ncc(/C(=C(\c2ccc(/C=C/C(=O)O)cc2)c2ccc3[nH]nc(F)c3c2)C2CCC2)c(C(F)(F)F)n1` [Example 111, (E)-3-(4-((E)-2-Cyclobutyl-1-(3-fluoro-1H-indazol-5-yl)-2-(2-methoxy-4-(trifluoromethyl)pyrimidin-5-yl)vinyl)phenyl)acrylic acid], in test [1], the Emax was at least 40% and the DC50 was at most 100 nM. Moreover, in test [2], the “MCF7 Viability Assay Max Response” value is on record as “++ (++ = a single % value ≧ 40%)” and the IC50 is at most 100 nM.
Consider `COc1cc(C)c(/C(=C(\c2ccc(/C=C/C(=O)O)cc2)c2ccc3[nH]nc(F)c3c2)C2CCC2)cn1` [Example 112, (E)-3-(4-((E)-2-Cyclobutyl-1-(3-fluoro-1H-indazol-5-yl)-2-(6-methoxy-4-methylpyridin-3-yl)vinyl)phenyl)acrylic acid], for which, in test [1], the Emax was at least 40% and the DC50 was at most 100 nM. Besides, in test [2], the “MCF7 Viability Assay Max Response” value is listed as “++ (++ = a single % value ≧ 40%)” and the 50% inhibitory concentration (IC50) was at most 100 nM.
Turning to `COc1ccc(/C(=C(\c2ccc(/C=C/C(=O)O)cc2)c2ccc3[nH]nc(F)c3c2)C2CC2)c(F)c1` [Example 113, (E)-3-(4-((E)-2-Cyclopropyl-1-(3-fluoro-1H-indazol-5-yl)-2-(2-fluoro-4-methoxyphenyl)vinyl)phenyl)acrylic acid], in test [1], the Emax is at least 40% and the DC50 is at most 100 nM. In addition, in test [2], the “MCF7 Viability Assay Max Response” value is “++ (++ = a single % value ≧ 40%)” and the 50% inhibitory concentration (IC50) is at most 100 nM.
As for `COc1ccc(/C(=C(\c2ccc(/C=C/C(=O)O)cc2)c2ccc3[nH]nc(F)c3c2)C2CC2)c(Cl)c1` [Example 114, (E)-3-(4-((E)-2-(2-Chloro-4-methoxyphenyl)-2-cyclopropyl-1-(3-fluoro-1H-indazol-5-yl)vinyl)phenyl)acrylic acid], in test [1], the Emax was at least 40% and the DC50 is at most 100 nM. For the same compound, in test [2], the “MCF7 Viability Assay Max Response” value is recorded as “++ (++ = a single % value ≧ 40%)” and the IC50 is at most 100 nM.
For `COc1ccc(/C(=C(\c2ccc(/C=C/C(=O)O)cc2)c2ccc3[nH]nc(F)c3c2)C2CC2)c(C)c1` [Example 115, (E)-3-(4-((E)-2-Cyclopropyl-1-(3-fluoro-1H-indazol-5-yl)-2-(4-methoxy-2-methylphenyl)vinyl)phenyl)acrylic acid], in test [1], the Emax was at least 40% and the DC50 was at most 100 nM. Further, in test [2], the “MCF7 Viability Assay Max Response” value was “++ (++ = a single % value ≧ 40%)” and the concentration for half-maximal inhibition (IC50) is at most 100 nM.
As to `COc1cc(C)c(/C(=C(\c2ccc(/C=C/C(=O)O)cc2)c2ccc3[nH]nc(F)c3c2)C2CC2)cn1` [Example 116, (E)-3-(4-((E)-2-Cyclopropyl-1-(3-fluoro-1H-indazol-5-yl)-2-(6-methoxy-4-methylpyridin-3-yl)vinyl)phenyl)acrylic acid], in test [1], the Emax was at least 40% and the DC50 is at most 100 nM. Further, in test [2], the “MCF7 Viability Assay Max Response” value is given as “++ (++ = a single % value ≧ 40%)” and the IC50 is at most 100 nM.
In the case of `CCOc1cc(C)c(/C(=C(\c2ccc(/C=C/C(=O)O)cc2)c2ccc3[nH]nc(F)c3c2)C2CC2)cn1` [Example 117, (E)-3-(4-((E)-2-Cyclopropyl-2-(6-ethoxy-4-methylpyridin-3-yl)-1-(3-fluoro-1H-indazol-5-yl)vinyl)phenyl)acrylic acid], in test [1], the Emax was at least 40% and the DC50 is at most 100 nM. In addition, in test [2], the “MCF7 Viability Assay Max Response” value is recorded as “++ (++ = a single % value ≧ 40%)” and the 50% inhibitory concentration (IC50) was at most 100 nM.
Consider `Cc1cc(C#N)ccc1/C(=C(\c1ccc(/C=C/C(=O)O)cc1)c1ccc2[nH]nc(F)c2c1)C1CC1` [Example 118, (E)-3-(4-((E)-2-(4-Cyano-2-methylphenyl)-2-cyclopropyl-1-(3-fluoro-1H-indazol-5-yl)vinyl)phenyl)acrylic acid], for which, in test [1], the Emax is at least 40% and the DC50 is at most 100 nM. In addition, in test [2], the “MCF7 Viability Assay Max Response” value is given as “++ (++ = a single % value ≧ 40%)” and the half-maximal inhibitory concentration (IC50) is at most 100 nM.
In the case of `N#Cc1ccc(/C(=C(\c2ccc(/C=C/C(=O)O)cc2)c2ccc3[nH]nc(F)c3c2)C2CC2)c(Cl)c1` [Example 119, (E)-3-(4-((E)-2-(2-Chloro-4-cyanophenyl)-2-cyclopropyl-1-(3-fluoro-1H-indazol-5-yl)vinyl)phenyl)acrylic acid], in test [1], the Emax is at least 40% and the DC50 is at most 100 nM. In test [2], the “MCF7 Viability Assay Max Response” value is given as “++ (++ = a single % value ≧ 40%)” and the IC50 was at most 100 nM.
`N#Cc1cc(Cl)ccc1/C(=C(\c1ccc(/C=C/C(=O)O)cc1)c1ccc2[nH]nc(F)c2c1)C1CC1` [Example 120, (E)-3-(4-((E)-2-(4-Chloro-2-cyanophenyl)-2-cyclopropyl-1-(3-fluoro-1H-indazol-5-yl)vinyl)phenyl)acrylic acid]: in test [1], the Emax was at least 40% and the DC50 was at most 100 nM. In test [2], the “MCF7 Viability Assay Max Response” value is “++ (++ = a single % value ≧ 40%)” and the concentration for half-maximal inhibition (IC50) is at most 100 nM.

The values above are taken from patent publication US9499538B2, “Estrogen receptor modulators and uses thereof” (Seragon Pharmaceuticals, Inc., priority 2012, dated 2016).
